The record followed here is a melting point compilation (Tetko et al.; mined from patent text by program, amines drawn as free bases though some values may be those of a salt).

For orientation: melting point means the temperature of the solid-liquid transition.

Bounds are passed on as bounds.

With `Cc1nc(NC(=O)c2cnn3c(C(F)F)cc(-c4ccc(C(F)(F)F)cc4)nc23)sc1S(=O)(=O)NC(CO)CO`, the melting point was 217 °C.
The result for `Cc1oc(-c2ccc(S(C)(=O)=O)cc2)c(Oc2ccc(F)cc2F)c(=O)c1Cl` reads 210 °C; that for `Cc1cccc(NC(=O)NCC(=O)N(CC(=O)OC(C)(C)C)c2ccccc2OC(F)(F)F)c1`, 163 °C; that for `COc1ccc(C2OCC(COC(C(F)(F)F)(C(F)(F)F)C(F)(F)F)(COC(C(F)(F)F)(C(F)(F)F)C(F)(F)F)CO2)cc1`, 89 to 90 °C.
Take `O=C(Nc1cnccn1)Nc1cccc2c1C1CCCCN1C2=O` (stereo not drawn): the melting point was determined as 215 °C.
On to `CCc1noc(=O)c2ccc(NC(=O)C(=O)CC(C)(C)c3cc(F)ccc3OC)cc12`, for which the melting point lay within 157 to 158 °C.
For `CN(C)S(=O)(=O)c1ccc2c(c1)C(Cl)c1ccccc1C=C2` (stereo not drawn), the melting point lay in the range of 140 to 144 °C.
`NC1=C(N=O)C(=O)N2CCN=C2N1Cc1ccc(F)cc1` came in with a melting point of 248 to 250 °C.
For the compound `N#CC=C(Cc1ccc2c(c1)OCO2)Nc1ccccc1`, the melting point lay in the range of 150 to 151 °C.
Turning to `C=CCNC(=O)[C@H]1N(C(=O)OC(C)(C)C)CSC1(C)C`, the melting point is 94 to 98 °C.
For `O=[N+]([O-])c1ccc(C#CCCN2CC=C(c3ccccc3)CC2)nc1` the value was 133 to 134 °C; for `Cc1nn(-c2ccccn2)c2ncc(C(=O)NC3CCCCC3)c(O)c12`, more than 300 °C; for `CC(=O)NS(=O)(=O)c1ccc(-n2sc3ccccc3c2=O)cc1`, 254 to 255 °C.
Compound `Cc1ccc2c(c1)c(-c1ccc(F)cc1)c(C)n2C1=CCN(CCN2CCNC2=O)CC1` displayed a melting point of 151 to 153 °C.
As for `CCOC(=O)C1CCCn2c(cc3ccccc32)C1` (stereo not drawn), the melting point lay within 69 to 70 °C.
In turn, `CCOC(=O)c1cc2ccccc2n1CC#N` returned a melting point of 65 to 67 °C.
`CCCCCCc1sc(C(N)=O)c2c1-c1c(cnn1C)CC2` registered a melting point of 100 to 101 °C.
In turn, `O=C1OCCC1C1CCc2c1[nH]c1ccccc21` (stereo not drawn) showed a melting point of 155 to 157 °C.
The result for `N#Cc1ccc(NC(=O)OC2CN3CCC2CC3)cc1` (stereo not drawn) reads 180 to 182 °C; that for `Cc1cc(Oc2c(Cl)cc(C(F)(F)F)cc2Cl)nn1C(=S)NC(C)C`, 92 to 94 °C; that for `O=C(Nc1cnc(-c2ccccc2)[nH]c1=O)OCc1ccccc1`, 217 to 219 °C.
The result for `CC(=O)OC1COC(N)C(OC(C)=O)C1OC(C)=O` (stereo not drawn) reads 148 to 149 °C.
Take `COc1ccc(-c2ccc3nc(NC(=O)c4ccc(C(C)(C)C)cc4)cn3c2)cn1`: the melting point lay in the range of 245 to 247 °C.
`CC(C)n1nc(-c2c(-c3ccccc3)nc(Cl)c(N)c2Cl)ccc1=O` registered a melting point of 186 to 188 °C.
`NC(=S)NCCN1CCC(Nc2nc3ccccc3n2Cc2ccc(F)cc2)CC1` showed a melting point of 186 °C.
Take `O=C(Nn1c(=O)c(=O)[nH]c2cc(C(F)(F)F)c([N+](=O)[O-])cc21)C(F)(F)F`: the melting point was more than 250 °C.
With `NS(=O)(=O)c1cc2cccc(O)c2s1`, the melting point lay in the range of 196 to 198 °C.
For `Cc1ccc(S(=O)(=O)N2CCCC2c2nnnn2[C@@](C)(Cc2ccc(N(C(=O)OC(C)(C)C)C(=O)C3CCNCC3)cc2)C(=O)O)cc1` (stereo partly drawn), the melting point lay in the range of 180 to 189 °C.
For `Cc1c(F)cccc1Cc1c(-c2ccccc2)c2ccccn2c1C(=O)N1CCN(C(=O)OC(C)(C)C)[C@@H](CCO[Si](C)(C)C(C)(C)C)C1` the value was 70 °C; for `CCOC(NC(=O)c1cccc(OC)c1)C(N)=O` (stereo not drawn), 143 to 144 °C.
In the case of `CC(=O)OCC(=O)C1C(C)CC2C3CC(Cl)C4=CC(=O)C=CC4(C)C34OC4CC21C` (stereo not drawn), the melting point turned out to be 189 °C.
Consider `CC1(C)Oc2ccc(C#N)cc2[C@@H](NC(=O)Nc2ccccc2)[C@@H]1O` (relative stereo), for which the melting point lay in the range of 226 to 227 °C.
For `CC(=O)Oc1ccc(C(C[N+](=O)[O-])SC(=S)N(C)C)cc1` (stereo not drawn), the melting point was 116 to 118 °C.
`O=C(c1cccnc1)N1CCC=N1` registered a melting point of 81 to 82 °C.
The compound `CC(=O)NCC1CN(c2ccc(N3CCN(c4nc(C)ns4)CC3)c(F)c2)C(=O)O1` (stereo not drawn) came in with a melting point of 168 to 170 °C.
The result for `CSCC(=O)[C@H](CCc1ccccc1)NC(=O)[C@H](CC(C)C)NC(=O)OCc1ccccc1` reads 119 to 120 °C.
For the compound `CN(CCOc1ccc(NC(=O)c2cccc3c(=O)c4ccccc4[nH]c23)cc1)Cc1ccccc1`, the melting point was 173 °C.
`Cc1nc(N)c2nc(CO)n(NC3CCCCC3)c2c1C` displayed a melting point of more than 250 °C.
For `CCCCCCCCCCCCCCCCC(O)CCCOC1CCCCO1` (stereo not drawn) the value was 39 to 43 °C; for `CC(O)CC#Cc1cc(CN2CCOCC2)cc2c(=O)c(C(=O)NCc3ccc(Cl)cc3)cn(C)c12` (stereo not drawn), 178 to 180 °C; for `COc1ccc(CCc2oc3ccc(Br)cc3c2CCl)cc1`, 70 to 75 °C.
For the compound `Cc1cc2c([C@@H]3C[C@H]3CNC(=O)c3ccccc3)cccn2n1` (relative stereo), the melting point lay within 112 to 113 °C.
The result for `O=C(c1ccccc1)c1cc(Cl)cc2c(=O)cc[nH]c12` reads 193 to 196 °C; that for `COc1cccc(-c2ccnc3ncnn23)c1`, 163 to 165 °C; that for `O=C(OCC(=O)N1CCCC1=O)c1ccccc1`, 83 to 84 °C.
For `Cc1nc2ncnn2c(O)c1Br` the value was 269 °C; for `CCOC(=O)C(O)C1OC(c2ccccc2Cl)c2cc(Cl)ccc2N(C(C)C)C1=O` (stereo not drawn), 126 to 128 °C; for `CC1(C)CCc2c(-c3ccoc3)nc3sc4c(NCc5cccnc5)ncnc4c3c2C1`, 247 to 248 °C.
Consider `CCCCc1nc(=O)c2cc(Br)c(F)cc2[nH]1`, for which the melting point amounted to 225 °C.
The result for `O=C(Nc1ccc(N2CCNCC2)cc1)c1ccccc1-c1ccc(C(F)(F)F)cc1` reads 119 to 124 °C.
With `CC1(C)NC(=O)C2CNCCN21` (stereo not drawn), the melting point worked out at 174 °C.
Regarding `Nc1c(Br)cccc1CS(=O)(=O)c1ccccc1`, the melting point lay within 174 to 177 °C.
`CCN(CC)C(=O)c1cc2cc(Br)ccc2o1`: the melting point lay within 79 to 81 °C.
Consider `CCOC(=O)/C=C/C=C/C(=O)c1cc2c(cc1C)C(C)(C)CCC2(C)C`, for which the melting point lay in the range of 101 to 102 °C.
Regarding `O=C1CCC2=C(CCc3cc(Cl)ccc32)N1`, the melting point is 228 to 230 °C.
In turn, `Nc1ccc(-c2nc3ccccc3o2)cc1I` displayed a melting point of 188 to 191 °C.
With `CN1CCNC(=S)N1c1cc(Cl)cc(Cl)c1`, the melting point is 240 to 241 °C.
Compound `CS(=O)(=O)NCCc1ccncc1` showed a melting point of 114 to 116 °C.
For `CCOC(=O)c1[nH]c(COC)nc1C(C)(C)O` the value was 112 to 113 °C.
With `CC(=O)N1CCC(=O)C(C(c2ccc(Cl)cc2)c2ccc(Cl)cc2)C1` (stereo not drawn), the melting point was 169 to 171 °C.
Consider `CCCc1nc2c(N)nc3cc(OCCOCCNC(=O)OC(C)(C)C)ccc3c2s1`, for which the melting point is 111 to 113 °C.
For `CC(=O)Nc1ccc([C@@H]2CO2)cn1` the value was 96 to 98 °C.
As for `CN(Cc1ccc(NC(=O)C2=Cc3cc(-c4ccc5c(c4)OCCO5)ccc3S(=O)(=O)CC2)cc1)C1CCOCC1`, the melting point is 248 to 251 °C.
In turn, `Cc1ccccc1C(=O)Nc1ccc(C(=O)N2Cc3cccn3Cc3ccccc32)cc1Cl` had a melting point of 176 to 178 °C.
Regarding `COc1cccc(Cn2cnc3c(-c4ccco4)nc(Cl)nc32)c1`, the melting point fell in the range of 160 to 161 °C.
`NCc1[nH]c2cc(Br)c(Cl)cc2c1-c1ccccc1` gave a melting point of 162 to 163 °C.
`COC(=O)CCC(C)C1CC=C2C3=C(CCC21C)C1(C)CCC(O)C(C)(C)C1CC3` (stereo not drawn) displayed a melting point of 156 to 157 °C.
`COP(=S)(OC)SCc1cc(=O)[nH]c(C(C)C)n1` registered a melting point of 89 to 93 °C.
The result for `Clc1ccc2c(c1)C(c1ccccc1)NC1=NCCN12` (stereo not drawn) reads 210 to 213 °C; that for `Cc1nc2c3c(c(C(=O)N4CC(F)C4)cc2n1C)CCC1(Cc2ccccc2C1)N3`, 259 to 260 °C; that for `COc1cccc(C=NNC(=O)OC(C)(C)C)c1`, 136 to 137 °C.
Take `NS(=O)(=O)c1ccc(-n2nc(C(F)(F)F)cc2-c2ccc(-c3cscn3)c(Cl)c2)cc1F`: the melting point lay in the range of 173 to 175 °C.
In turn, `O=c1[nH]c2ccccc2n1CCCN1CCC(n2c(=S)[nH]c3ccccc32)CC1` had a melting point of 248 °C.
Turning to `COC(=O)c1ccc(-c2nc(-c3cc(C)oc3C)cs2)cc1`, the melting point was 103 to 105 °C.
The result for `CN(C(=O)CCCOc1ccc2[nH]c(=O)oc(=O)c2c1)C1CCCCC1` reads 222 to 224 °C; that for `CCOC(=O)c1ncn2c(C(F)(F)F)cc(-c3ccc(C(F)(F)F)cc3)nc12`, 243 °C.
For the compound `CCCCCCCCCCCCNc1ccnc(Cl)n1`, the melting point lay in the range of 80 to 82 °C.
The compound `N=C(N)c1ccc(-n2ncn(-c3ccc(CCC(=O)O)cc3)c2=O)cc1` had a melting point of 310 to 313 °C.
The compound `Nc1c(Br)cc(C2=NNC(=O)CC2)cc1Br` displayed a melting point of 212 to 214 °C.
The result for `CC(C)(C(=O)c1ccc(Cl)cc1)n1cncn1` reads 111 °C; that for `CC(=O)OC1COC(NNC(=O)C(F)(F)F)C(OC(C)=O)C1OC(C)=O` (stereo not drawn), 106 °C.
Turning to `O=C1C(=Cc2ccsc2)CCc2cc(OCCc3c[nH]cn3)ccc21`, the melting point was 94 to 96 °C.
`Fc1ccc2[nH]cc(CC3CCN(CC4COc5ccc6ncccc6c5O4)CC3)c2c1` (stereo not drawn) displayed a melting point of 184 °C.
With `CN(C)c1nc(NCc2ccc(NC(=O)c3ccc(F)cc3)cc2)c2ccc(CO)cc2n1`, the melting point was found to be 158 °C.
In turn, `COC(=O)c1cc(=O)c2ccc(OCC(O)COc3cccc(O)c3C(C)=O)cc2[nH]1` (stereo not drawn) displayed a melting point of 192 to 194 °C.
In turn, `CP(C)(=O)CCCOC(=O)c1cccnc1Nc1cccc(C(F)(F)F)c1` gave a melting point of 165 °C.
For `CCOC(=O)c1ccc(N2CCN(C(=O)CCc3cc(C(C)(C)C)c(O)c(C(C)(C)C)c3)CC2)cc1` the value was 85 to 86 °C; for `CCCc1c(OCCCOc2ccc([N+](=O)[O-])cc2)ccc(C(C)=O)c1O`, 98 °C.
